# Measured values taken from ChEMBL document CHEMBL1152216, “Pyrazino[1,2-b]isoquinolines: synthesis and study of their cytostatic and cytotoxic properties” (2008).
# Activity calls are given as the source filed them. The calls are words filed in the database; no cut-off is given here.
# Tests used:
# MDA-MB-231 [1] = experiment: Growth inhibition of human MDA-MB-231 cells after 48 hrs by MTT assay; type: functional; conditions: MDA-MB-231, 48 h
# HT-29 [2] = experiment: Growth inhibition of human HT-29 cells after 48 hrs by MTT assay; type: functional; conditions: HT-29, 48 h
# A549 [3] = experiment: Growth inhibition of human A549 cells after 48 hrs by MTT assay; type: functional; conditions: A549, 48 h
# A549 [4] = experiment: Cytotoxicity against human A549 cells after 48 hrs by MTT assay; type: functional; conditions: A549, 48 h
# HT-29 [5] = experiment: Cytotoxicity against human HT-29 cells after 48 hrs by MTT assay; type: functional; conditions: HT-29, 48 h, read-out: LC50 (the source's name)
# A549 [6] = experiment: Induction of apoptosis in human A549 cells at 50 uM after 48 hrs by propidium iodide staining; type: functional, cell-based
# A549 [7] = experiment: Cell cycle arrest in human A549 cells assessed as decrease in accumulation at G2/M phase at […] after 48 hrs by flow cytometry; type: functional, cell-based
# A549 [8] = experiment: Cell cycle arrest in human A549 cells assessed as increase in accumulation at G1 phase at […] after 48 hrs by flow cytometry; type: functional, cell-based
# A549 [9] = experiment: Induction of DNA cleavage in human A549 cells assessed as H2AX phosphorylation at 50 uM after 24 hrs by Western blot; type: functional, cell-based
# A549 [10] = experiment: Induction of DNA cleavage in human A549 cells assessed as CHK2 Ser19 phosphorylation at 50 uM after 24 hrs by Western blot; type: functional, cell-based
# A549 [11] = experiment: Induction of DNA cleavage in human A549 cells assessed as p53 Ser15 phosphorylation at 50 uM after 24 hrs by Western blot; type: functional, cell-based
# A549 [12] = experiment: Induction of apoptosis in human A549 cells assessed as JNK activation at 50 uM after 24 hrs by Western blot; type: functional, cell-based
# A549 [13] = experiment: Induction of apoptosis in human A549 cells assessed as p38 activation at 50 uM after 24 hrs by Western blot; type: functional, cell-based
# A549 [14] = experiment: Induction of apoptosis in human A549 cells assessed as AKT signaling pathway activation at 50 uM after 24 hrs by Western blot; type: functional, cell-based
# A549 [15] = experiment: Cell cycle arrest in human A549 cells assessed as decrease in accumulation at G1 phase at […] after 48 hrs by flow cytometry; type: functional, cell-based
# MDA-MB-231 [16] = experiment: Cytotoxicity against human MDA-MB-231 cells after 48 hrs by MTT assay; type: functional; conditions: MDA-MB-231, 48 h, read-out: LC50 (the source's name)
SMILES,GI50 (MDA-MB-231 [1]) [µM],GI50 (HT-29 [2]) [µM],GI50 (A549 [3]) [µM],TGI (A549 [3]) [µM],LC50 (A549 [4]) [µM],TGI (HT-29 [2]) [µM],CC50 (HT-29 [5]) [µM],Activity (A549 [6]),Activity (A549 [7]),Activity (A549 [8]),Activity (A549 [9]),Activity (A549 [10]),Activity (A549 [11]),Activity (A549 [12]),Activity (A549 [13]),Activity (A549 [14]),Activity (A549 [15]),TGI (MDA-MB-231 [1]) [µM],CC50 (MDA-MB-231 [16]) [µM]
COc1c(C)c(OC)c(OC)c2c1C=C1CN(C)CC(=O)N1[C@H]2CN1Cc2ccccc2C1=O,11.9,3.67,–,–,–,–,–,–,–,–,–,–,–,–,–,–,–,–,–
COc1c(C)c(OC)c(OC)c2c1C[C@H]1CNCC(=O)N1[C@H]2COCc1ccccc1 (relative stereo),–,–,13.4,> 23.4,> 23.4,–,–,–,–,–,–,–,–,–,–,–,–,–,–
COc1c(C)c(OC)c(OC)c2c1C[C@H]1CN(C)CC(=O)N1[C@H]2COCc1ccccc1 (relative stereo),–,–,12.7,> 22.7,> 22.7,–,–,–,–,–,–,–,–,–,–,–,–,–,–
COc1c(C)c(OC)c(OC)c2c1C[C@@H]1CN(C(=O)OC(C)C)CC(=O)N1[C@H]2COCc1ccccc1 (relative stereo),–,10.5,8.19,16.8,–,–,–,–,–,–,–,–,–,–,–,–,–,–,–
COc1c(C)c(OC)c(OC)c2c1C[C@H]1CN(C(=O)OC(C)C)CC(=O)N1[C@H]2COCc1ccccc1 (relative stereo),1.09,0.195,0.449,1.89,–,0.273,0.527,–,–,–,–,–,–,–,–,–,–,–,–
COc1c(C)c(OC)c(OC)c2c1C[C@H]1CN(C(=O)OC(C)C)CC(=O)N1[C@H]2COC(=O)/C=C/c1ccccc1 (relative stereo),–,9.23,9.05,–,–,–,–,Active,Active,Active,inactive,inactive,inactive,inactive,inactive,inactive,–,–,–
COc1c(C)c(OC)c(OC)c2c1C[C@H]1[C@@H](O)N(C(=O)OC(C)C)CC(=O)N1[C@H]2COCc1ccccc1 (relative stereo),9.27,8.32,5.68,11.7,17.4,9.84,–,Active,Active,–,inactive,inactive,inactive,inactive,inactive,inactive,Active,15.3,–
COc1c(C)c(OC)c(OC)c2c1C[C@H]1[C@H](C#N)N3C([C@@H]4O[C@H]5c6ccccc6[C@H](C#N)N5C[C@H]3c3c(OC)c(OC)c(C)c(OC)c34)[C@@H]2N1C (relative stereo),11.4,7.35,11.4,12,12.7,8.22,10.2,–,–,–,inactive,inactive,inactive,inactive,inactive,inactive,–,12,12.8
COc1c(C)c(OC)c2c(c1OC)[C@@H]1CN3C(=O)c4ccccc4[C@@H]3O[C@H]2C2=CN(C(=O)OC(C)C)CC(=O)N21 (relative stereo),–,10.4,2.91,–,–,–,–,–,–,–,–,–,–,–,–,–,–,–,–
COc1c(C)c(OC)c(OC)c2c1C[C@H]1[C@@H](O)N(C(=O)OC(C)(C)C)CC(=O)N1[C@H]2COCc1ccccc1 (relative stereo),12,14.4,4.79,17.5,> 18.4,> 18.4,> 18.4,–,–,–,–,–,–,–,–,–,–,> 18.4,> 18.4
COc1cc2c(cc1O)CCN[C@]21CS[C@@H]2c3c(OC(C)=O)c(C)c4c(c3[C@H](COC1=O)N1[C@@H]2[C@H]2c3c(cc(C)c(OC)c3O)C[C@@H]([C@@H]1O)N2C)OCO4 [TRABECTEDIN],0.0551,0.0517,0.125,0.131,–,0.063,–,–,–,–,–,–,–,–,–,–,–,0.0578,–
